Paper PMC3880221 (Chembiochem : a European journal of chemical biology, 2011)

Legend:
[1] = target: T1, NRH:quinone oxidoreductase 2 (NQO2, QR2) (Homo sapiens, UniProt P16083); experiment: co-crystal structure; type: binding
T1 sequence (P16083 1-231): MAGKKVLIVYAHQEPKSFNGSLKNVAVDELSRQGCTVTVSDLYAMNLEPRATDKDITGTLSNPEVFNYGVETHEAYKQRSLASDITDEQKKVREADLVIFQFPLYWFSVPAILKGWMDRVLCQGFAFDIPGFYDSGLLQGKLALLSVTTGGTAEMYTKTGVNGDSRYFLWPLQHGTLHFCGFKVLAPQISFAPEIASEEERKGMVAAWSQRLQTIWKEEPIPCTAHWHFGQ

[2] = target: NQO1 (QR1) (Homo sapiens, UniProt P15559); experiment: recombinant human NQO1 activity after treatment with […] compound ± NADH; type: biochemical
Chain of NQO1 (QR1) (P15559 whole entry): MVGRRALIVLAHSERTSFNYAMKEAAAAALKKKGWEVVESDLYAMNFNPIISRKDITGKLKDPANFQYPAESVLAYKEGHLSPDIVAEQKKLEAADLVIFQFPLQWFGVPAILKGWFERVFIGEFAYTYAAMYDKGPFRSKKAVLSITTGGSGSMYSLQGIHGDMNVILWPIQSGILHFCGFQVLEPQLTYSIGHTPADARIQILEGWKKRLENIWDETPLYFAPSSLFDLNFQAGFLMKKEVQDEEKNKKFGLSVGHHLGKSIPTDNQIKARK

Compound | Kd [1] | partition ratio [2]
Cc1c(COc2ccc([N+](=O)[O-])cc2)c2c(n1C)C(=O)C=C(NCCCCN)C2=O [2c, 5-(4-Aminobutyl)amino-1,2-dimethyl-3-(4-nitrophenoxy)methylindole-4,7-dione] | Kd1 = 71; Kd2 = 19 μM | 
COC1=CC(=O)c2c(c(COc3ccc([N+](=O)[O-])cc3)c(C)n2C)C1=O [1a, 5-methoxy-1,2-dimethyl-3-(4-nitrophenoxymethyl)indole-4,7-dione] |  | 3.5 (partition ratio)
